Assays:
[1] = target: Phosphodiesterase 4 (Rattus norvegicus) (UniProt P14270+P14646+P14644+P54748); experiment: Displacement of [3H]rolipram from Phosphodiesterase 4 in rat brain membranes at 10 uM; type: cell membranes
[2] = target: Phosphodiesterase 3 (Cavia porcellus); experiment: Inhibitory activity against cGMP inhibited Phosphodiesterase 3, isolated from guinea pig ventricular tissue
[3] = target: Phosphodiesterase 4 (Cavia porcellus); experiment: Inhibitory activity against phosphodiesterase 4 isolated from guinea pig ventricular tissue
[4] = target: Phosphodiesterase 4 (Cavia porcellus); experiment: Increased cAMP accumulation in isoprenaline-induced guinea pig eosinophils

Structure (SMILES) | inhibition [1] | IC50 [2] | IC50 [3] | EC50 [4]
CCCCc1nc(N(CCC)Cc2ccccc2)c2sccc2n1 | 37% | > 200 µM | 2.5 µM | –
c1ccc(CNc2[nH]c(Cc3ccccc3)nc3ncnc2-3)cc1 | – | > 200 µM | 29 µM | –
CCCCc1nc(NCc2ccc([N+](=O)[O-])cc2)c2sccc2n1 | – | 8.5 µM | 6.3 µM | –
CCCc1nc2cccnc2n(Cc2ccccc2)c1=O | – | > 200 µM | 1 µM | –
CCCCc1nc2ncccc2c(=O)n1Cc1ccccc1 | – | > 200 µM | 10 µM | –
CCCCc1nc(NCc2ccc(-c3ccccc3)cc2)c2sccc2n1 | – | 200 µM | > 200 µM | –
c1ccc(CNc2nc(-c3ccccc3)nc3ccsc23)cc1 | 8% | > 200 µM | 3 µM | –
CCCCc1nc(N(Cc2ccccc2)Cc2ccccc2)c2sccc2n1 | 37% | > 200 µM | 4 µM | –
c1ccc(CNc2ncnc3ccsc23)cc1 | – | 68 µM | 14 µM | 18 µM
CCCCc1nc(NCc2ccncc2)c2sccc2n1 | – | 29 µM | 0.6 µM | –
CCCCc1nc2ccccc2c(=O)n1Cc1ccccc1 | – | > 200 µM | 16 µM | –
CCc1nc(NCc2ccccc2)c2sccc2n1 | 41% | 30 µM | 2.3 µM | –
CCCCc1nc(NC(=O)c2ccccc2)c2sccc2n1 | – | > 200 µM | 23 µM | –
CCCc1nc2ccccc2n(Cc2ccccc2)c1=O | – | > 200 µM | 0.9 µM | –
c1ccc(CNc2nc(Cc3ccccc3)nc3ccsc23)cc1 | – | 5 µM | 1.5 µM | –
CCCCc1nc2ccsc2c(=O)n1Cc1ccccc1 | – | 43 µM | 5 µM | –
CCCCc1nc(NCc2ccccc2)c2nccnc2n1 | – | 45 µM | 6.7 µM | –
c1ccc(CNc2nc(N3CCCCC3)nc3ccsc23)cc1 | – | > 200 µM | 65 µM | 21 µM

From ChEMBL document CHEMBL1131633, “Design, synthesis, and biological activities of new thieno[3,2-d] pyrimidines as selective type 4 phosphodiesterase inhibitors” (J Med Chem, 1998)
